Laboratory results: paper PMC8795745, “A GSH/CB Dual-Controlled Self-Assembled Nanomedicine for High-Efficacy Doxorubicin-Resistant Breast Cancer Therapy” (Frontiers in Pharmacology, 2022)
One block for each compound: values may come before it. Bridge positions count the residues as written; N and C are the ends. Square brackets hold non-standard residues; d marks the D form. Peptide text beside a SMILES is read from it. * marks the point of attachment. Acetyl(2-naphthyl) = O=C(Cc1ccc2ccccc2c1)*

Columns and labels:
MCF-7 cells [1] = format: cell-based
MCF-7 cells [2] = format: cell-based; remark: listed apart in the source
Method: (§1) MTT assay was performed as described previously.^[6^] Briefly, the cells (5 × 10^3 cells/well) were seeded in 96-well culture plates (Coring) and incubated overnight. Then cells were exposed to various concentrations of cyclic-1a and incubated at 37 °C for 72 h. After that, MTT stock solution (0.5 mg/mL) was added into each well and cultured for additional 4 h. The MTT treated cells were […] with 150 μL of DMSO. The absorbance in each individual well was measured by using a microplate spectrophotometer at […] (SpectraMax M2e, Molecular Devices Inc. USA).

CB enzyme (cathepsin B) = biological target: T1, CB enzyme (cathepsin B) (Homo sapiens, UniProt P07858); assay: Cathepsin B conversion of linear-1a into linear-1b (LC-MS); format: biochemical; details: after GSH 8 mM for 12 h, then CB 1 U/mL, 37 °C, PBS pH 7.4; at 20 h; LC-MS peak area; mean, n=3
T1 construct: purchased Sigma-Aldrich (St. Louis, MO, USA)
Method: Molecular self-assembly was performed as described previously.^[1] Briefly, the cyclic-1a was diluted into the phosphate-buffered saline (PBS; pH 7.4) to a final concentration of 1600 µM and incubated at 37 °C. The GSH (8 mM) was then added to the above solution for 12 h at 37 °C to trigger the first step of self-assembly. Afterward, cathepsin B was added to the solution for 12 h at 37 °C to trigger the second step of self-assembly (1 U/mL).
2 mL of the sample prepared by part 3 were adding GSH (8 mM) for 12 h, and then added 1 U/mL of cathepsin B, 100 µL of each sample was collected at each time point and 100 µL methanol was added to terminate the reaction. The method of detection was similar to part 3.1.

MCF-7/DOX cells = assay: MTT assay, MCF-7/DOX cells; format: cell-based; details: Homo sapiens, MCF7-DOX, mean ± SD, n=3
Method: as §1

[3] = Body weight and histological examination of organs in tumor-bearing mice; format: in vivo, BALB/c nude mice; details: cyclic-1a 20 and 60 mg/kg
Method: Female BALB/c nude mice (6 weeks old) were purchased from the Experimental Animal Center of Yangzhou University. The experiments involving animals were approved by the Animal Ethics Committee of China Pharmaceutical University (Ethic approval number: 2020-07-003). In vivo anticancer activity assay was performed as described previously.^[9^] Briefly, MCF-7/DOX cells (200 μL, 1 × 10^7 cells) were implanted into the right mammary fat pad of nude mice. Once tumors grew to 80-100 mm^3, mice were randomly assigned into four groups and treated intraperitoneally with vehicle, cyclic-1a (20 mg/kg), cyclic-1a (60 mg/kg) or DOX (5 mg/kg) every 3 days for a total of six times. Tumor volume and body weight were measured every 3 days. Tumor volume was calculated using the formula (c × c × d)/2 (c, the smallest diameter; d, the largest diameter).
Immunohistochemical stains against Ki67 and cleaved caspase 3 were performed using immunohistochemistry kit (KeyGen, Nanjing, China) according to the manufacturer’s instructions. Mouse organs (heart, liver, spleen, lung and kidney) tissues were fixed in 4% paraformaldehyde at 4 °C for 48 h, and then embedded in paraffin wax, sectioned (5 µm) and processed for H&E staining. Inverted fluorescence microscope was used to photograph all sections.

Structure (SMILES): N=C(N)NCCC[C@H](NC(=O)CNC(=O)CNC(=O)[C@@H]1CSSC[C@H](NC(=O)Cc2ccc3ccccc3c2)C(=O)N[C@H](Cc2ccccc2)C(=O)N[C@H](Cc2ccccc2)C(=O)N[C@H](Cc2ccc(O)cc2)C(=O)N[C@H](CCCCN)C(=O)N1)C(=O)N[C@@H](CCCNC(=N)N)C(=O)NCC(=O)N[C@@H](CCCCN)C(=O)NCC(=O)NCC(=O)N[C@@H](Cc1c[nH]cn1)C(=O)N[C@@H](Cc1c[nH]cn1)C(=O)N[C@@H](Cc1c[nH]cn1)C(=O)N[C@@H](CCCNC(=N)N)C(=O)N[C@@H](CCCNC(=N)N)C(=O)NCC(=O)N[C@@H](CC(=O)O)C(=O)N[C@@H](CO)C(=O)O [cyclic-1a] ({Acetyl(2-naphthyl)}-C[dF][dF][dY][dK]CGGRRGKGGHHHRRGDS-OH; disulfide 1-6)
cellular uptake ability, MCF-7 cells (MCF-7 cells [1]): strong cellular uptake ability
cytotoxicity to MCF-7 cells (MTT) (MCF-7 cells [2]): no obvious cytotoxicity

linear-1a converted into linear-1b (CB enzyme (cathepsin B)): more than 90%
Structure (SMILES): N=C(N)NCCC[C@H](NC(=O)CNC(=O)CNC(=O)[C@H](CS)NC(=O)[C@@H](CCCCN)NC(=O)[C@@H](Cc1ccc(O)cc1)NC(=O)[C@@H](Cc1ccccc1)NC(=O)[C@@H](Cc1ccccc1)NC(=O)[C@H](CS)NC(=O)Cc1ccc2ccccc2c1)C(=O)N[C@@H](CCCNC(=N)N)C(=O)NCC(=O)N[C@@H](CCCCN)C(=O)NCC(=O)NCC(=O)N[C@@H](Cc1c[nH]cn1)C(=O)N[C@@H](Cc1c[nH]cn1)C(=O)N[C@@H](Cc1c[nH]cn1)C(=O)N[C@@H](CCCNC(=N)N)C(=O)N[C@@H](CCCNC(=N)N)C(=O)NCC(=O)N[C@@H](CC(=O)O)C(=O)N[C@@H](CO)C(=O)O [linear-1a] ({Acetyl(2-naphthyl)}-C[dF][dF][dY][dK]CGGRRGKGGHHHRRGDS-OH)

IC50 (MCF-7/DOX cells): 83.3 ± 6.13 µM
Structure (SMILES): COc1cccc2c1C(=O)c1c(O)c3c(c(O)c1C2=O)C[C@@](O)(C(=O)CO)C[C@@H]3O[C@H]1C[C@H](N)[C@H](O)[C@H](C)O1 [doxorubicin, Doxorubicin]
body weight of mice ([3]; DOX 5 mg/kg, intraperitoneally every 3 days, six times, n=6): gradually increased throughout the experiments except for the DOX-treated group
pathological lesions in organs (H&E) ([3]; heart, liver, spleen, lung and kidney, DOX 5 mg/kg intraperitoneally): lesions of the heart and kidney were detected
